We go through 86 molecules from the Kinase Knowledgebase extract (Sharma et al. 2016).

pIC50: −log10 of the molar value. Some results are limits rather than exact numbers.

In the test the target is MAPK14 (UniProt Q16539). Put plainly: Inhibition of MAPK14 Kinase Activity.
Chain of MAPK14 (Q16539 whole entry, looked up): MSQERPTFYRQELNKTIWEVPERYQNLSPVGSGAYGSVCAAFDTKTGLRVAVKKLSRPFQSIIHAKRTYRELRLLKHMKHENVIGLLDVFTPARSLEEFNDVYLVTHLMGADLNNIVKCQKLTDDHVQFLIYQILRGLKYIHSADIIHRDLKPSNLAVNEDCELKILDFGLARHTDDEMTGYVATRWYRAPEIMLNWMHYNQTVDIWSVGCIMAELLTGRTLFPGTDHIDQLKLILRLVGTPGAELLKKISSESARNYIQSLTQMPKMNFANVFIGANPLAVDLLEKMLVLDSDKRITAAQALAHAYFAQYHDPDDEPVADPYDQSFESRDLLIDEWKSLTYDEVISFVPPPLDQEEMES
As usually defined, the pIC50 is −log10 of the IC50, conventionally taken in molar units. High values mean a small IC50, low ones a large IC50. For `Cc1ccc(C(=O)NC2CC2)cc1-c1ccc2c(cnn2S(=O)(=O)c2ccc(C(F)(F)F)cc2)c1`, the pIC50 is above 5.00. In the case of `Cc1ccc(C(=O)NC2CC2)cc1-c1ccc2c(cnn2S(=O)(=O)c2ccccc2C#N)c1` it was above 5.00; in that of `Cc1ccc(C(=O)NC2CC2)cc1-c1ccc2c(CC(=O)N3CCCC3)noc2c1`, above 5.00. Next, `Cc1c(F)cc(C(=O)NC2CC2)cc1-c1ccc2c(cnn2S(=O)(=O)c2cc(F)cc(F)c2)c1`: above 5.00; `Cc1ccc(C(=O)NC2CC2)cc1-c1ccc2c(cnn2C2CCNCC2)c1`: above 5.00.

For `Cc1ccccc1S(=O)(=O)n1ncc2cc(-c3cc(C(=O)NC4CC4)cc(F)c3C)ccc21`, the pIC50 was above 5.00. Next, `Cc1c(F)cc(C(=O)NC2CC2)cc1-c1ccc2c(cnn2CC(=O)NCC2CC2)c1`: above 5.00. `Cc1ccc(NC(=O)c2ccnc(N3CCCC3)c2)cc1-c1ccc2onc(C)c2c1` showed a pIC50 above 5.00.

`Cc1ccc(NC(=O)c2ccnc(N3CCCC3)c2)cc1-c1ccc2c(C3CCNCC3)noc2c1` had a pIC50 above 5.00. Next, `Cc1c(F)cc(C(=O)NC2CC2)cc1-c1ccc2c(cnn2S(=O)(=O)c2ccc(Cl)cc2)c1`: above 5.00; `Cc1ccc(C(=O)NC2CC2)cc1-c1ccc2c(cnn2CC(=O)NCC(C)(C)C)c1`: above 5.00; `Cc1ccc(C(=O)NC2CC2)cc1-c1ccc2c(CN3CCN(C)CC3)noc2c1`: above 5.00. `Cc1ccc(C(=O)NC2CC2)cc1-c1ccc2c(CC(=O)NCCO)noc2c1` had a pIC50 above 5.00.

`Cc1ccc(C(=O)NC2CC2)cc1-c1ccc2c(cnn2CC(=O)N2CCOCC2)c1`: the pIC50 is above 5.00. In the case of `Cc1ccc(C(=O)NC2CC2)cc1-c1ccc2c(cnn2S(=O)(=O)c2c(C)noc2C)c1` it was above 5.00; in that of `Cc1ccc(C(=O)NC2CC2)cc1-c1ccc2c(cnn2S(=O)(=O)c2cccc(F)c2)c1`, above 5.00. In turn, `COC(=O)c1ccc(CS(=O)(=O)n2ncc3cc(-c4cc(C(=O)NC5CC5)ccc4C)ccc32)cc1` showed a pIC50 above 5.00. In the case of `Cc1ccc(C(=O)NC2CC2)cc1-c1ccc2c(CC(=O)N3CCNCC3)noc2c1` it was above 5.00; in that of `Cc1ccc(NC(=O)c2ccsc2)cc1-c1ccc2c(C3CCNCC3)noc2c1`, above 5.00. In the case of `Cc1ccc(C(=O)NC2CC2)cc1-c1ccc2c(CC(=O)NCCCO)noc2c1` it was above 5.00. In the case of `Cc1ccc(C(=O)NC2CC2)cc1-c1ccc2c(cnn2S(=O)(=O)c2ccc3c(c2)CCO3)c1` it was above 5.00; in that of `Cc1ccc(C(=O)NC2CC2)cc1-c1ccc2c(CNC(CO)CO)noc2c1`, above 5.00. Consider `Cc1ccc(C(=O)Nc2cccc(N3CCOCC3)c2)cc1-c1ccc2c(C)noc2c1`, for which the pIC50 was above 5.00. Consider `Cc1c(F)cc(C(=O)NC2CC2)cc1-c1ccc2c(NC3CC3)noc2c1`, for which the pIC50 is above 5.00. Next, `CCCCc1ccc(S(=O)(=O)n2ncc3cc(-c4cc(C(=O)NC5CC5)cc(F)c4C)ccc32)cc1`: above 5.00. In the case of `Cc1ccc(C(=O)NC2CC2)cc1-c1ccc2c(cnn2S(=O)(=O)c2ccc(F)c(F)c2)c1`, the pIC50 was above 5.00. Next, `Cc1ccc(C(=O)NC2CC2)cc1-c1ccc2c(CC(=O)NC3CC3)noc2c1`: above 5.00.

As to `Cc1ccc(C(=O)NC2CC2)cc1-c1ccc2c(cnn2S(=O)(=O)C2CC2)c1`, the pIC50 was above 5.00.

`Cc1cccc(S(=O)(=O)n2ncc3cc(-c4cc(C(=O)NC5CC5)cc(F)c4C)ccc32)c1`: the negative-log IC50 (pIC50) is above 5.00. As to `CCCNC(=O)Cn1ncc2cc(-c3cc(C(=O)NC4CC4)ccc3C)ccc21`, the pIC50 is above 5.00. The molecule `Cc1ccc(C(=O)NC2CC2)cc1-c1ccc2c(cnn2C2CCN(C(=O)OC(C)(C)C)CC2)c1` showed a pIC50 above 5.00. In the case of `Cc1c(F)cc(C(=O)NC2CC2)cc1-c1ccc2c(cnn2S(=O)(=O)c2cccs2)c1` it was above 5.00. Next, `Cc1c(F)cc(C(=O)NC2CC2)cc1-c1ccc2c(S(C)(=O)=O)n[nH]c2c1`: above 5.00. Next, `Cc1ccc(C(=O)NC2CC2)cc1-c1ccc2c(cnn2CC(=O)NCc2ccccc2)c1`: above 5.00.

Molecule `Cc1c(F)cc(C(=O)NC2CC2)cc1-c1ccc2c(cnn2S(=O)(=O)c2ccc(C#N)cc2)c1` gave a pIC50 above 5.00. In the case of `Cc1c(F)cc(C(=O)NC2CC2)cc1-c1ccc2[nH]nc(C)c2c1` it was above 5.00; in that of `CCCNC(=O)Cn1ncc2cc(-c3cc(C(=O)NC4CC4)cc(F)c3C)ccc21`, above 5.00; in that of `Cc1ccc(S(=O)(=O)n2ccc3cc(-c4cc(C(=O)NC5CC5)cc(F)c4C)ccc32)cc1`, above 5.00. In the case of `Cc1ccc(C(=O)NC2CC2)cc1-c1ccc2c(cnn2CC2CC2)c1` it was above 5.00; in that of `CNC(=O)c1ccc(CNC(=O)Cn2ncc3cc(-c4cc(C(=O)NC5CC5)cc(F)c4C)ccc32)cc1`, above 5.00.

Molecule `Cc1ccc(C(=O)NC2CC2)cc1-c1ccc2c(C3CCNCC3)noc2c1` showed a pIC50 above 5.00.

For `CNC(=O)c1ccc(CNC(=O)Cn2ncc3cc(-c4cc(C(=O)NC5CC5)ccc4C)ccc32)cc1`, the pIC50 was above 5.00. Next, `Cc1ccc(C(=O)NC2CC2)cc1-c1ccc2c(cnn2S(=O)(=O)c2cccc(C#N)c2)c1`: above 5.00; `Cc1c(F)cc(C(=O)NC2CC2)cc1-c1ccc2c(cnn2CC(=O)NCc2ccccc2)c1`: above 5.00; `Cc1ccc(CNC(=O)Cn2ncc3cc(-c4cc(C(=O)NC5CC5)ccc4C)ccc32)cc1`: above 5.00.

`Cc1c(F)cc(C(=O)NC2CC2)cc1-c1ccc2c(cnn2S(=O)(=O)c2ccccc2F)c1`: the negative logarithm of the IC50 (pIC50) is above 5.00. In the case of `COC(=O)c1ccc(S(=O)(=O)n2ncc3cc(-c4cc(C(=O)NC5CC5)ccc4C)ccc32)o1` it was above 5.00; in that of `Cc1ccc(C(=O)NC2CC2)cc1-c1ccc2c(cnn2S(=O)(=O)c2cn(C)cn2)c1`, above 5.00; in that of `Cc1ccc(C(=O)NCC2CC2)cc1-c1ccc2c(C3CCNCC3)noc2c1`, above 5.00. In the case of `Cc1ccc(C(=O)NC2CC2)cc1-c1ccc2[nH]ncc2c1` it was above 5.00; in that of `Cc1ccc(C(=O)Nc2nccs2)cc1-c1ccc2c(C3CCNCC3)noc2c1`, above 5.00; in that of `COc1ccc(S(=O)(=O)n2ncc3cc(-c4cc(C(=O)NC5CC5)cc(F)c4C)ccc32)cc1`, above 5.00.

The molecule `Cc1c(F)cc(C(=O)NC2CC2)cc1-c1ccc2c(cnn2C(=O)OC(C)(C)C)c1` showed a pIC50 above 5.00. Next, `COC(=O)Cc1noc2cc(-c3cc(C(=O)NC4CC4)ccc3C)ccc12`: above 5.00. Next, `Cc1noc(C)c1S(=O)(=O)n1ncc2cc(-c3cc(C(=O)NC4CC4)cc(F)c3C)ccc21`: above 5.00. Turning to `Cc1ccc(C(=O)NC2CC2)cc1-c1ccc2c(CC(=O)N3CCCCC3)noc2c1`, the pIC50 was above 5.00. In the case of `Cc1ccc(C(=O)Nc2nccs2)cc1-c1ccc2c(C)noc2c1` it was above 5.00.

In the case of `Cc1ccc(C(=O)NC2CC2)cc1-c1ccc2c(cnn2S(=O)(=O)c2ccc(-c3ccon3)s2)c1`, the pIC50 was above 5.00. Next, `CC(=O)c1ccc(S(=O)(=O)n2ncc3cc(-c4cc(C(=O)NC5CC5)ccc4C)ccc32)cc1`: above 5.00; `Cc1ccc(C(=O)NC2CC2)cc1-c1ccc2c(cnn2S(=O)(=O)c2ccccc2F)c1`: above 5.00. The molecule `CCCCS(=O)(=O)n1ncc2cc(-c3cc(C(=O)NC4CC4)cc(F)c3C)ccc21` gave a negative-log IC50 (pIC50) above 5.00. Next, `CCc1ccc(S(=O)(=O)n2ncc3cc(-c4cc(C(=O)NC5CC5)cc(F)c4C)ccc32)cc1`: above 5.00; `CNC(=O)Cc1noc2cc(-c3cc(C(=O)NC4CC4)ccc3C)ccc12`: above 5.00; `COc1ccc(S(=O)(=O)n2ncc3cc(-c4cc(C(=O)NC5CC5)ccc4C)ccc32)cc1OC`: above 5.00. In the case of `Cc1ccc(C(=O)NC2CC2)cc1-c1ccc2c(N)noc2c1` it was above 5.00; in that of `Cc1c(F)cc(C(=O)NC2CC2)cc1-c1ccc2c(cnn2S(=O)(=O)c2cccc(F)c2)c1`, above 5.00. Next, `Cc1ccc(C(=O)NC2CC2)cc1-c1ccc2cn[nH]c2c1`: above 5.00; `COc1ccc(CNC(=O)Cn2ncc3cc(-c4cc(C(=O)NC5CC5)cc(F)c4C)ccc32)cc1`: above 5.00; `Cc1c(F)cc(C(=O)NC2CC2)cc1-c1ccc2c(cnn2S(=O)(=O)Cc2ccccc2)c1`: above 5.00. Turning to `CNC(=O)c1noc2cc(-c3cc(C(=O)NC4CC4)cc(F)c3C)ccc12`, the pIC50 is above 5.00.

Turning to `Cc1c(F)cc(C(=O)NC2CC2)cc1-c1ccc2[nH]ncc2c1`, the pIC50 was above 5.00. Next, `Cc1c(F)cc(C(=O)NC2CC2)cc1-c1ccc2c(cnn2S(=O)(=O)c2cc(F)ccc2F)c1`: above 5.00; `Cc1ccc(C(=O)NC2CC2)cc1-c1ccc2c(cnn2S(C)(=O)=O)c1`: above 5.00. Molecule `Cc1ccc(C(=O)NC2CC2)cc1-c1ccc2c(CN3CCCC3)noc2c1` showed a pIC50 above 5.00.

`Cc1ccc(C(=O)Nc2ccnc(N3CCCC3)c2)cc1-c1ccc2c(C)noc2c1`: the pIC50 was above 5.00. Next, `Cc1ccc(C(=O)NC2CC2)cc1-c1ccc2c(cnn2S(=O)(=O)c2cccs2)c1`: above 5.00; `Cc1ccc(C(=O)NC2CC2)cc1-c1ccc2nc(NC(=O)C3CC3)sc2c1`: above 5.00; `CCCS(=O)(=O)n1ncc2cc(-c3cc(C(=O)NC4CC4)cc(F)c3C)ccc21`: above 5.00.

For `Cc1ccc(C(=O)NC2CC2)cc1-c1ccc2c(cnn2S(=O)(=O)c2ccccc2[N+](=O)[O-])c1`, the pIC50 is above 5.00.

Consider `Cc1ccc(C(=O)NC2CC2)cc1-c1ccc2c(CC(=O)Nc3nccs3)noc2c1`, for which the pIC50 was above 5.00. In the case of `COc1cccc(S(=O)(=O)n2ncc3cc(-c4cc(C(=O)NC5CC5)cc(F)c4C)ccc32)c1`, the pIC50 is above 5.00.

The molecule `Cc1c(F)cc(C(=O)NC2CC2)cc1-c1ccc2c(cnn2S(=O)(=O)c2ccc(F)c(F)c2)c1` had a pIC50 above 5.00.

Turning to `Cc1ccc(C(=O)NC2CC2)cc1-c1ccc2c(CN3CCOCC3)noc2c1`, the pIC50 was above 5.00. `Cc1ccc(C(=O)NC2CC2)cc1-c1ccc2c(N3CCNCC3)noc2c1` showed a pIC50 above 5.00. In the case of `Cc1ccc(NC(=O)c2ccoc2)cc1-c1ccc2c(C3CCNCC3)noc2c1` it was above 5.00; in that of `Cc1c(F)cc(C(=O)NC2CC2)cc1-c1ccc2c(cnn2S(=O)(=O)c2ccc(F)cc2F)c1`, above 5.00.
